Data from BindingDB's records for doi:10.1016/j.bmc.2006.10.028 (Kirin Brewery, 2006).

assay: Inhibition of MCP1-induced chemotaxis in U937 cells overexpressing CCR2

Structure (SMILES)	IC50
Nc1cccc(CN2CC[C@@H](Nc3cccc4cnccc34)C2)c1 [(3R)-N-[1-(3-aminobenzyl)-3-pyrrolidyl]-N-(5-isoquinolyl)amine]	1 µM
Clc1cccc(CN2CCC(Nc3cccc4cnccc34)C2)c1 (stereo unspecified) [N-(1-(3-chlorobenzyl)pyrrolidin-3-yl)isoquinolin-5-amine]	14 µM
Nc1ccc(CN2CCC(Nc3cccc4cnccc34)C2)cc1 (stereo unspecified) [N-(1-(4-aminobenzyl)pyrrolidin-3-yl)isoquinolin-5-amine]	15 µM
Fc1cccc(F)c1CN1CCC(Nc2cccc3cnccc23)C1 (stereo unspecified) [N-(1-(2,6-difluorobenzyl)pyrrolidin-3-yl)isoquinolin-5-amine]	10 µM
Nc1cccc(CN2CC[C@H](Nc3cccc4cnccc34)C2)c1 [(3S)-N-[1-(3-aminobenzyl)-3-pyrrolidyl]-N-(5-isoquinolyl)amine]	30 µM
Nc1cccc(CN2CCC(Nc3cccc4cnccc34)C2)c1 (stereo unspecified) [N-(1-(3-aminobenzyl)pyrrolidin-3-yl)isoquinolin-5-amine]	20 µM

Other lines, results leading:

IC50	Structure (SMILES)
23 µM	Clc1ccc(CN2CCCC(Nc3cccc4cnccc34)C2)cc1 (stereo unspecified) [N-(1-(4-chlorobenzyl)piperidin-3-yl)isoquinolin-5-amine]
11 µM	Clc1ccc(CN2CCC(Nc3cccc4cnccc34)C2)cc1 (stereo unspecified) [N-(1-(4-chlorobenzyl)pyrrolidin-3-yl)isoquinolin-5-amine]
14 µM	Nc1ccccc1CN1CCC(Nc2cccc3cnccc23)C1 (stereo unspecified) [N-[1-(2-aminobenzyl)-3-pyrrolidyl]-N-(5-isoquinolyl)amine]
22 µM	Fc1ccc(CN2CCC(Nc3cccc4cnccc34)C2)cc1 (stereo unspecified) [N-[1-(4-fluorobenzyl)-3-pyrrolidyl]-N-(5-isoquinolyl)amine]
17 µM	Clc1ccccc1CN1CCC(Nc2cccc3cnccc23)C1 (stereo unspecified) [N-[1-(2-chlorobenzyl)-3-pyrrolidyl]-N-(5-isoquinolyl)amine]
